Key:
Assay in all cases: relative viability (nuclei count vs DMSO), 5 days (fraction); higher = more cells survive
[1] = compound: C1CC(C2=C(C1)C3=C(N2)C=CC(=C3)Cl)C(=O)N [Selisistat] + O=C(CCCCCCC(=O)Nc1ccccc1)NO [Vorinostat] (partner 1 µM)
Outline: (§1)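 Relative viability is defined as nuclei in treated wells over nuclei in vehicle wells. Duplicate plates were run and medians reported. Lung cancer cell lines in 1536-well plates were dosed by pin tool one day after seeding, with one drug or with a fixed anchor-drug dose plus five library-drug doses (not always all listed) in √10 steps, and nuclei were counted after 5 days.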

[2] = compound: C1CC(C2=C(C1)C3=C(N2)C=CC(=C3)Cl)C(=O)N [Selisistat] + Nc1ncn([C@H]2C[C@H](O)[C@@H](CO)O2)c(=O)n1 [Decitabine] (partner 2 µM)
Outline: as §1

[3] = compound: c1ccc2c(CCNc3ccc(Nc4ccncc4)cc3)c[nH]c2c1 [Serdemetan] + Cc1nc(NC(=O)N2CCC[C@H]2C(N)=O)sc1-c1ccnc(C(C)(C)C(F)(F)F)c1 [Alpelisib] (partner 2 µM)
Outline: as §1

[4] = compound: c1ccc2c(CCNc3ccc(Nc4ccncc4)cc3)c[nH]c2c1 [Serdemetan] + CS(=O)(=O)CCNCc1ccc(-c2ccc3ncnc(Nc4ccc(OCc5cccc(F)c5)c(Cl)c4)c3c2)o1 [Lapatinib] (partner 2 µM)
Outline: as §1

Cell Line	relative viability ([1]; first compound 0.4 µM)	relative viability ([1]; first compound 1.265 µM)	relative viability ([1]; first compound 4 µM)	relative viability ([1]; first compound 12.65 µM)	relative viability ([1]; first compound 40 µM)	relative viability ([2]; first compound 0.4 µM)	relative viability ([2]; first compound 1.265 µM)	relative viability ([2]; first compound 12.65 µM)	relative viability ([2]; first compound 40 µM)	relative viability ([3]; first compound 0.04 µM)	relative viability ([3]; first compound 0.1265 µM)	relative viability ([3]; first compound 0.4 µM)	relative viability ([3]; first compound 1.265 µM)	relative viability ([3]; first compound 4 µM)	relative viability ([4]; first compound 0.04 µM)	relative viability ([4]; first compound 0.1265 µM)	relative viability ([4]; first compound 0.4 µM)	relative viability ([4]; first compound 1.265 µM)	relative viability ([4]; first compound 4 µM)	relative viability ([2]; first compound 4 µM)
HCC-15	0.912	0.931	0.875	0.878	1.07	0.695	0.739	0.737	0.79	0.924	0.825	0.856	0.531	0.579	0.819	0.847	0.84	0.657	0.637	
HCC-44	1.08	1.09	1.21	1.24	1.24	0.976	1.01	1.01	1.07	0.714	0.772	0.75	0.532	0.636	0.875	0.99	0.862	0.913	0.873	0.943
HCC-78	0.495	0.467	0.437	0.428	0.6	0.768	0.794	0.66	0.646	0.337	0.36	0.349	0.364	0.262	0.769	0.666	0.323	0.448	0.78	0.6
HCC-366	0.464	0.434	0.57	0.441	0.384	0.383	0.31	0.356	0.324	0.403	0.434	0.208	0.0495	0.0462	1.07	0.811	0.902	0.0523	0.0553	0.33
HCC-827	0.851	0.829	0.862	0.862	0.837	0.313	0.375	0.321	0.291	0.924	0.934		0.723	0.6	0.168	0.178		0.188	0.173	0.31
IA-LM	1.09			0.926	1.22					0.726	0.834	0.729	0.535	0.568	0.723	1	0.655	0.584	0.322	
LCLC-103H	0.824	0.908	0.747	0.803	0.953	0.782	0.77	0.729	0.75	0.944	0.957	0.923	0.844	0.764						0.7
NCI-H441	0.851	0.723	0.805	0.666	1	0.268	0.234	0.25	0.293	0.85	0.678	0.803	0.524	0.513						0.234
NCI-H522	0.908	0.868	0.835	0.919	1.13	0.768	0.662	0.617	0.647											0.664
NCI-H1299										0.992	0.996	1.03	0.96	0.968	0.939	0.984	0.985	0.78	0.767	
NCI-H1563										0.89	0.893	0.931	0.815	0.763	0.637	0.892	0.527	0.799	0.723	
NCI-H1648	0.289	0.446		0.596	0.39	0.477	0.45	0.406	0.551											
NCI-H1650	0.578	0.533	0.704	0.726	0.67	0.545	0.422	0.481	0.438						0.718	0.768	0.599	0.846	0.558	0.382
NCI-H1703										0.389	0.345	0.306	0.277	0.374	1.38	1.05	1.07	1.09	0.885	
NCI-H1792						0.625	0.497	0.516	0.537	0.697	0.686	0.567	0.529	0.257	0.854	0.863	0.86	0.646	0.676	
NCI-H2228	0.724	0.5	1	0.725	1.08					0.762	0.554	0.46	0.307	0.294	1.07	1.03	0.984	0.431	0.391	
NCI-H2342	0.749	0.646	0.626	0.899	0.897	0.734	0.772	0.704	0.874											0.689
SW 900	0.684	0.705	0.518	0.747	0.781	0.446	0.401	0.517	0.5											0.42
